# Several values for one entry are separate records, joined by “and”; a condition that tells them apart may be missing. Equal entries are not always repeated. Entries after “also recorded” stand apart in the source; their conditions may differ.
# Columns and labels:
# C57BL6 female mice [1] = experiment: Cumulus oocyte complex yield after PMSG superovulation, doxorubicin with or without NMN; assay type: in vivo; conditions: per mouse, single dose doxorubicin 10 mg/kg i.p. and/or NMN 2 g/L drinking water, 2 months post doxorubicin
# Procedure: To assess oocyte yield, and mice were hormonally stimulated to superovulated by intraperitoneal injection with 7.5 IU/mL of Pregnant Mare's Serum Gonadotropin (PMSG) (Folligon; Intervet, Boxmeer, Holland) to stimulate follicular growth. After 44-46 hours, ovaries were collected in HEPES-buffered minimum essential medium (aMEM; […] Sigma Aldrich, St. Louis, Mo.) and 100 μM IBMX (Sigma Aldrich). […] NMN was delivered through addition to drinking water at 2 g/L, for a final dose of approximately 165 mg/kg. Administration of NMN began one day prior to doxorubicin administration. […] Ovaries were then punctured to release MI oocytes. In a separate cohort of animals, the same experiment was repeated using animals treated with the platinum based chemotherapy drug cisplatin. In FIG. 6 and Table 1, numbers of cumulus oocyte complexes are listed.
# C57BL6 female mice [2] = experiment: Mating trial after doxorubicin with or without NMN co-treatment; assay type: in vivo; conditions: for Number of mating rounds required to achieve pregnancy: the values are: cumulative % of females pregnant by round
# Procedure: Following oocyte counting and analysis of oocyte meiotic progression, as well as a separate cohort of animals for histological ovarian analysis, a separate cohort of animals were treated as indicated, and mated with stud males of proven track record, to assess the ability of animals to deliver live births following chemotherapy treatment in the presence of absence of NMN co-treatment.
# oocytes = experiment: Meiotic progression (GVBD, PBE) of harvested oocytes, cisplatin with or without NMN; assay type: in vivo, mice; conditions: cisplatin and/or NMN
# Procedure: Once harvested from ovaries, oocytes were stored in IBMX media to prevent progression into meiosis. Once released from IBMX, meiotic progression was assessed by the proportions of oocytes achieving germinal vesicle breakdown (GVBD) for meiosis I, and polar body extrusion (PBE) for meiosis II, with results shown in FIGS. 7 and 8 and Tables 2 and 3.
# Again, as in Example 2 above, the oocytes which were harvested from these studies were allowed to progress down meiosis, in order to assess meiotic progression rates (FIGS. 16 and 17 and Table 7 and 8).
# C57BL6 females [3] = experiment: Reversal design: oocyte yield, cisplatin followed by NMN 4 weeks later; assay type: in vivo, mice; conditions: cisplatin 5 mg/kg i.p., per mouse
# Procedure: (§1) To assess oocyte yield, and mice were hormonally stimulated to superovulated by intraperitoneal injection with 7.5 IU/mL of Pregnant Mare's Serum Gonadotropin (PMSG) (Folligon; Intervet, Boxmeer, Holland) to stimulate follicular growth. After 44-46 hours, ovaries were collected in HEPES-buffered minimum essential medium (aMEM; Gibco Life Technologies, Grand Island, N.Y.) supplemented with 50 µM of 3-isobuty-1-methylxanthine (IBMX) (Sigma aldrich, NSW, AU) (M2 medium) to maintain meitotic arrest at germinal vesicle stage. Cumulus oocyte complexes (COCs) were isolated from preovulatory follicles using a 27-gauge needle and collected using flame-pulled borosilicate Pasteur pipettes in M2 medium supplemented with 3 mg/ml bovine serum albumin (BSA; Sigma Aldrich, St. Louis, Mo.) and 100 μM IBMX (Sigma Aldrich). Cumulus oocyte complexes (COCs) were mechanically denuded of cumulus cells by pipetting, and the denuded oocytes were transferred to another dish containing a drop of fresh M2-medium plus IBMX on heat block with 37° C. with lid to protect oocytes from light.
# Next, we decided to investigate whether NMN treatment delivered some time following chemotherapy treatment could actively reverse chemotherapy induced infertility. […]
# C57BL6 females [4] = experiment: Reversal design: pups born after chemotherapy followed by NMN; assay type: in vivo, mice; conditions: cisplatin 5 mg/kg i.p., NMN delivered well after chemotherapy; 6 mating rounds
# From the text: In Examples 2-4, it was shown that co-treatment with NMN during chemotherapy treatment could protect against infertility. Next, we decided to investigate whether NMN treatment delivered some time following chemotherapy treatment could actively reverse chemotherapy induced infertility. […] The rationale of this experimental design is to investigate whether NMN has the ability to induce regeneration of the ovary. According to the standard dogma of reproductive biology, mammals are born with a set number of follicles which are slowly released as oocytes over the course of a lifetime, with the ovaries incapable of regenerating new follicles.
# [5] = system: C57BL6 and SwissTacAusb female mice; experiment: Oocyte yield in aged mice treated with NMN; assay type: in vivo; conditions: 15 month-old mice, NMN drinking water 2 g/L, 4 weeks, versus untreated
# Procedure: as §1, with “Cumulus oocyte complexes (COCs) were mechanically denuded of cumulus cells by pipetting, and the denuded oocytes were transferred to another dish containing a drop of fresh M2-medium plus IBMX on heat block with 37° C. with lid to protect oocytes from light.” left out
# Systemic treatment with the NAD^+ precursor nicotinamide mononucleotide (NMN) increases intracellular NAD^+ levels, and we hypothesised that NMN treatment could restore the activity of SIRT2 to stabilise BubR1 and maintain oocyte reserve and competence into later ages. […] Animals were super-ovulated, and oocyte yield was assessed. […]
# C57BL6 mice = experiment: Breeding trial with NMN in drinking water; assay type: in vivo; conditions: NMN 2 g/L drinking water
# From the text: FIG. 4. A) is a graph showing litter size. C57BL6 mice were maintained on normal drinking water supplemented with or without NMN (2 g/L) from 2 months of age. From 4 months of age, animals were timed mated with proven stud male C57BL6. Pregnancy was confirmed using micro-ultrasound for the presence of a foetal heartbeat, and the number of pups born in subsequent litters recorded. B) is a graph showing body weights of pups from breeding trials at 12 days of age.
# To determine whether NMN treatment could improve overall, functional fertility, we conducted a breeding trial in C57BL6 mice. Both pregnancy success rates and litter size (FIG. 4A) were improved in animals that received NMN, further confirming the importance of this mechanism to female fertility. Offspring from females that received NMN treatment developed at a similar rate to offspring from untreated females, even after challenging with high fat feeding (FIG. 5A and 5B).
structure (smiles),measurement,setting,value
"NC(=O)c1ccc[n+]([C@@H]2O[C@H](COP(=O)([O-])O)[C@@H](O)[C@H]2O)c1 [NMN, nicotinamide mononucleotide]",Numbers of cumulus oocyte complexes released from mice,C57BL6 female mice [1],able to protect against doxorubicin induced oocyte loss and 33 and 17 and 15 and 10 and 18 and 13
same,Number of mating rounds required to achieve pregnancy,C57BL6 female mice [2]; Round 0,0%
same,Number of mating rounds required to achieve pregnancy,C57BL6 female mice [2]; Round 1,60%
same,Number of mating rounds required to achieve pregnancy,C57BL6 female mice [2]; Round 2,80%
same,Number of mating rounds required to achieve pregnancy,C57BL6 female mice [2]; Round 3,88%
same,Body weight of pups born to females receiving NMN,C57BL6 female mice [2]; day 12 of age,no difference in body weight
same,Proportion of harvested oocytes achieving germinal vesicle breakdown,oocytes; 1 h after release from IBMX,45 % of total
same,Proportion of harvested oocytes achieving germinal vesicle breakdown,oocytes; 2 h after release from IBMX,83 % of total
same,Proportion of harvested oocytes achieving polar body extrusion,oocytes; 14 hr following completion of GVBD,48 % of total
same,Proportion of harvested oocytes achieving polar body extrusion,oocytes; 16 hr following completion of GVBD,60 % of total
same,Proportion of harvested oocytes achieving polar body extrusion,oocytes; 20 hr following completion of GVBD,91 % of total
same,Oocyte yield,C57BL6 females [3],restoration of oocyte number and 9 and 17 and 10
same,Number of pups born (cisplatin followed by NMN),C57BL6 females [4],complete restoration
same,COC (oocyte) yield in aged females,[5],more than doubled; also recorded: dramatically increased
same,Litter size,C57BL6 mice,improved
same,Pregnancy success rates,C57BL6 mice,improved
